How the values were obtained:
[1] = test system: rats; details: cited from earlier work
[2] = test system: male and female rats; test: von Frey mechanical withdrawal threshold after oxaliplatin CIPN induction; type: in vivo, rat; details: after single i.p. oxaliplatin 6 mg/kg, 3 days; baseline 72.9±2.7 grams
Description: Chronic pain models: Chemotherapy induced neuropathy was induced in rats with oxaliplatin after i.t catheter placement recovery with a single i.p. dose of oxaliplatin 6 mg/kg. The animals were allowed to recover for 3 days and then were assessed in the open field assay to ensure motor function and with a von Frey assay to assess allodynia to verify their pain state. The von Frey assay with an electronic aesthesiometer quantified the average baseline for a group of male and female rats to be 72.9±2.7 grams for the mechanical withdrawal threshold after cannulation but before CIPN model induction which fell to 27.9±2.7 grams indicating allodynia. On the day of treatment rats were assessed for baseline measures and then treated and assayed for […] responses.

Compound: CSCC[C@@H]1NC(=O)CNC(=O)[C@H](CCC(=O)O)NC(=O)[C@@H]2CSSC[C@H](NC(=O)[C@@H](N)Cc3ccc(O)cc3)C(=O)N[C@@H](CCC(N)=O)C(=O)N[C@@H](CCCCN)C(=O)N[C@@H](Cc3c[nH]c4ccccc34)C(=O)N[C@@H](CCSC)C(=O)N[C@@H](Cc3c[nH]c4ccccc34)C(=O)N[C@@H]([C@@H](C)O)C(=O)N[C@H]3CSSC[C@H](NC(=O)[C@H](C(C)C)NC1=O)C(=O)N[C@@H](CCCNC(=N)N)C(=O)N[C@@H](CC(C)C)C(=O)N[C@@H](Cc1c[nH]c4ccccc14)C(=O)N[C@H](C(=O)N[C@@H](CCCCN)C(=O)N[C@@H](CCCCN)C(=O)N[C@@H](CCCCN)C(=O)N[C@@H](CC(C)C)C(=O)N[C@@H](Cc1c[nH]c4ccccc14)C(=O)O)CSSC[C@H](NC(=O)[C@H](CCCCN)NC(=O)[C@H](CCCNC(=N)N)NC(=O)[C@H](CCC(=O)O)NC(=O)[C@H](CO)NC(=O)[C@H](CC(=O)O)NC3=O)C(=O)N2 [WT ProTx-II]
- motor effect after intrathecal administration ([1]; 2.4 µg i.t., ref Schmalhofer et al., 2008): laming effect
- maximum tolerated dose in rats ([1]; in 10 µL, intrathecal, ref Flinspach et al., 2017): 2 µg

Compound: O=C1[O][Pt]2([NH][C@@H]3CCCC[C@H]3[NH]2)[O]C1=O [oxaliplatin]
- mechanical withdrawal threshold (von Frey, electronic aesthesiometer) [2]: 27.9±2.7 grams

— article PMC9831606, “Computational design of peptides to target NaV1.7 channel with high potency and selectivity for the treatment of pain” (eLife, 2022)
